Assay results taken from ChEMBL document CHEMBL1201862, “PubChem BioAssay data set” (2004).
Calls of active or inactive are those of the source.

Key:
Nonstructural protein 1 = Nonstructural protein 1 (Influenza A virus, UniProt Q194T2); type: functional, Influenza A virus (A/California/07/2009(H1N1))
Caspase-3 = target: T1, Caspase-3 (Homo sapiens, UniProt P42574); type: functional;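 also: Dose-response selectivity test against caspase-3 for candidate inhibitors of sentrin-specific proteases (SENPs)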
T1 sequence (P42574 whole entry): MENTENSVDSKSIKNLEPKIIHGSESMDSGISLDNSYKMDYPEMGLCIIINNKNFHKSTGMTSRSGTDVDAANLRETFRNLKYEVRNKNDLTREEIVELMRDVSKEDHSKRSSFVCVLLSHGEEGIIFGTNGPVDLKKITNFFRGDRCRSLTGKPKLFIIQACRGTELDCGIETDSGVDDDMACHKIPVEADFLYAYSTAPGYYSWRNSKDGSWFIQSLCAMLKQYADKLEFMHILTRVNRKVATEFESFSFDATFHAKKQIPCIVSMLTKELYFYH

[1] = target: T2, Sentrin-specific protease 7 (Homo sapiens, UniProt Q9BQF6); type: functional;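 also: Luminescence-based dose-response confirmation of ultra-high-throughput screening hits, measuring inhibition of SENP7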
T2 sequence (Q9BQF6 whole entry): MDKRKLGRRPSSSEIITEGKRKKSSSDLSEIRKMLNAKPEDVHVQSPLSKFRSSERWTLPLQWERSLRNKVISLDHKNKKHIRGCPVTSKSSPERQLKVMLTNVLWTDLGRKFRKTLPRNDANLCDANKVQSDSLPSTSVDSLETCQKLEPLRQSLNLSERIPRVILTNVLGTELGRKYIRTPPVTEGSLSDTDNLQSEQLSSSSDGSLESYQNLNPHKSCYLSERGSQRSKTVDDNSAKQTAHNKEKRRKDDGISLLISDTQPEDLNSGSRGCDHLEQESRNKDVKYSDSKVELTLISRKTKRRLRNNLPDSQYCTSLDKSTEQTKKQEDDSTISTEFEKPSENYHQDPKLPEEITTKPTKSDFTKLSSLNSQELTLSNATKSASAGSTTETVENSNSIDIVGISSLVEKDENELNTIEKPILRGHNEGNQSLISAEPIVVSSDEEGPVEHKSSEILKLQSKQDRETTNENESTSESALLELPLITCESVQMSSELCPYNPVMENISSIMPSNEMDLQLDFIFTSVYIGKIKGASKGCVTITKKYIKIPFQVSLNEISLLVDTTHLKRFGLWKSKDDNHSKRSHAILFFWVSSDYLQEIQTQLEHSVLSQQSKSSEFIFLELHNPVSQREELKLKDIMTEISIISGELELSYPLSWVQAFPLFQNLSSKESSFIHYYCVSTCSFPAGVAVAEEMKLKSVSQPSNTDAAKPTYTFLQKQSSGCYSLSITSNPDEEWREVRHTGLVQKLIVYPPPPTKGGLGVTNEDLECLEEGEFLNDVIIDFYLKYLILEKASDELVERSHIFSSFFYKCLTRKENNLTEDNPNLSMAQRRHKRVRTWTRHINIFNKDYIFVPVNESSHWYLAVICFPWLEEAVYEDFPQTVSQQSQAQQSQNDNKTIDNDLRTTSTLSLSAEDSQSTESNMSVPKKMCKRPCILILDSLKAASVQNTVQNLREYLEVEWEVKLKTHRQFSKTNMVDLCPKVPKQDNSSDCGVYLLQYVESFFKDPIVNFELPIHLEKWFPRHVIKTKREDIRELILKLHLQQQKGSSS

[2] = target: T3, Sentrin-specific protease 6 (Homo sapiens, UniProt Q9GZR1); type: functional;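 also: Luminescence-based dose-response confirmatory assay of SENP6 inhibition, following up an ultra-high-throughput screen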
T3 sequence (Q9GZR1 whole entry): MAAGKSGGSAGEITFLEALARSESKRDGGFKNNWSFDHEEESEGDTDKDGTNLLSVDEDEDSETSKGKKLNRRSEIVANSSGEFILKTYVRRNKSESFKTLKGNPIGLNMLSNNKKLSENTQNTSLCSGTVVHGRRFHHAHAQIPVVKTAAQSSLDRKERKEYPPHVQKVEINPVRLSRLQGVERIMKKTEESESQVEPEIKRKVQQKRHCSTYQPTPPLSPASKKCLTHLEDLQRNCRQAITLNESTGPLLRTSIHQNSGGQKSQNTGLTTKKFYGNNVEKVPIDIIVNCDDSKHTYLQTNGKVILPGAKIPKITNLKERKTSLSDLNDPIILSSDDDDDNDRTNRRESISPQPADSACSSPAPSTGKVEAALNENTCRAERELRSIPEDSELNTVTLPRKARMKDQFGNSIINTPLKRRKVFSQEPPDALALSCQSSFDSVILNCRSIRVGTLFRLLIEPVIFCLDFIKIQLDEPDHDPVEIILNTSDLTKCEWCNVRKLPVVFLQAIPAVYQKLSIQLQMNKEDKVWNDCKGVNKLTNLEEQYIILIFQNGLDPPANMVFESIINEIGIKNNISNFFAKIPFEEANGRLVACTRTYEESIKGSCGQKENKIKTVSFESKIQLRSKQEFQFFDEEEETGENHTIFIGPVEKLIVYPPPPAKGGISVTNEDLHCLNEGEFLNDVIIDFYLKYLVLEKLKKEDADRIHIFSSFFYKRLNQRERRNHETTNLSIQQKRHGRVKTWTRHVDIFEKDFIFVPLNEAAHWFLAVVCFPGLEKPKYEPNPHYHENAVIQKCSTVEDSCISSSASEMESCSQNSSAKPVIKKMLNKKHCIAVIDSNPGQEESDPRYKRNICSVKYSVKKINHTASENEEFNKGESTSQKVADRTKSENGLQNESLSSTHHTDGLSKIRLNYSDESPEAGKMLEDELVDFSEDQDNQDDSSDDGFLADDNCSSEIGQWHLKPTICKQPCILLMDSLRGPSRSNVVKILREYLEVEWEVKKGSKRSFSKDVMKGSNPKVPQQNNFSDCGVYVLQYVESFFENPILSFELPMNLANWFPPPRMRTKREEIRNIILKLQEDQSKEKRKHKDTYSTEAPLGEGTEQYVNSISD

[3] = target: T4, Sentrin-specific protease 8 (Homo sapiens, UniProt Q96LD8); type: functional;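 also: luminescence read-out of SENP8 inhibition, dose-response confirmation following an ultra-high-throughput screen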
T4 sequence (Q96LD8 whole entry): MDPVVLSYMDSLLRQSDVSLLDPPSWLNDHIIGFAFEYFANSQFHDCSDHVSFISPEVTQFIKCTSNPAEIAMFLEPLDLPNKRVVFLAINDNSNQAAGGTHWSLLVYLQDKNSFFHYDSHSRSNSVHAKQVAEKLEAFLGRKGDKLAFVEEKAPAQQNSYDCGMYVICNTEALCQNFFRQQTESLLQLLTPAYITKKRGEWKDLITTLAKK

[4] = luciferase reporter signal suppression in cells – H4 neuroglioma cells, luminescence, dose response (AID 1990); type: functional, cell-based
[5] = Luminescence Cell-Based Dose Response HTS to Identify Inhibitors of 5'UTR Stem-Loop Driven Prion Protein mRNA Translation in H4 Neuroglioblastoma Cells. [Related pubchem assays: 1827 (Project Summary), 1813 (Primary HTS)]; type: functional
[6] = alpha-synuclein stem-loop luciferase translation blockers – H4 neuroglioma cells, luminescence, confirmation (AID 1988); type: functional, cell-based
[7] = HEK-293T cell viability reduction – luminescence, B-cell screen hits, cytotoxicity control for BCR NF-kB inhibitor project, dose response (AID 489021); type: functional, cell-based;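 also: HEK-293T cells carrying an NF-kB luciferase reporter; cells exposed to compound for about 14 hours before viability readout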
H9c2 = assay: cells; type: functional, cell-based; conditions: Rattus norvegicus, H9c2, Myocardium
Protein skinhead-1 = target: T5, Protein skinhead-1 (Caenorhabditis elegans, UniProt P34707); type: functional
T5 sequence (P34707 whole entry): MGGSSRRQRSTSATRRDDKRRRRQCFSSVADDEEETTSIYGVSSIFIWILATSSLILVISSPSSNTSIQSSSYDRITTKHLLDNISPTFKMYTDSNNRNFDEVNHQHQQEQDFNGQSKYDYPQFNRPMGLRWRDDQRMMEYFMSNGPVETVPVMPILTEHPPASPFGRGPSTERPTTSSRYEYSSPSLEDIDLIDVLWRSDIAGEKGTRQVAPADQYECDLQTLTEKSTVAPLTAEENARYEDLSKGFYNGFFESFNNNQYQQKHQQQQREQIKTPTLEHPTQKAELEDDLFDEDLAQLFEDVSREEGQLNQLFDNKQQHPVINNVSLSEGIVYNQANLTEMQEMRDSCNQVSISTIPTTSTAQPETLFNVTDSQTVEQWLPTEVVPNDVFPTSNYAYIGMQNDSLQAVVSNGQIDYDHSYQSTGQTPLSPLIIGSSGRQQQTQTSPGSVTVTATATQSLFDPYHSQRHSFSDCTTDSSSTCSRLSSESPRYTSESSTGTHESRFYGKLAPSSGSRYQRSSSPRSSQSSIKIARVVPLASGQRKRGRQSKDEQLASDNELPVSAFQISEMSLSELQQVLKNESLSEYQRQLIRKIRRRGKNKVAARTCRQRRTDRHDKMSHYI

[8] = target: T6, Corticotropin-releasing factor receptor 2/Corticotropin-releasing factor-binding protein (Homo sapiens, UniProt P24387+Q13324); assay: Dose Response confirmation of uHTS hits for small molecule antagonists of the CRF-binding protein and CRF-R2 receptor complex.; type: functional; conditions: read-out: IC50_Mean
T6 sequence (Q13324 whole entry): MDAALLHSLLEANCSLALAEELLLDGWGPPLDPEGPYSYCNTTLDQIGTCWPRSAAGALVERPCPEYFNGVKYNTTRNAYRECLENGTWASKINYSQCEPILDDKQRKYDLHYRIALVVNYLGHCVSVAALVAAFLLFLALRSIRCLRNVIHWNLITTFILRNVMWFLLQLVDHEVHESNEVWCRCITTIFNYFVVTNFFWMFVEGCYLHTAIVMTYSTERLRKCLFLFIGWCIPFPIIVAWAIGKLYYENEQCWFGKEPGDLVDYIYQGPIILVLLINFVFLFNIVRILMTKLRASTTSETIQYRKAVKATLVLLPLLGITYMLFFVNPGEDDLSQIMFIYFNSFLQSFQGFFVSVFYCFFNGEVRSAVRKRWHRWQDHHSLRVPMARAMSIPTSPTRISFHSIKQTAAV
T6 sequence (P24387 whole entry): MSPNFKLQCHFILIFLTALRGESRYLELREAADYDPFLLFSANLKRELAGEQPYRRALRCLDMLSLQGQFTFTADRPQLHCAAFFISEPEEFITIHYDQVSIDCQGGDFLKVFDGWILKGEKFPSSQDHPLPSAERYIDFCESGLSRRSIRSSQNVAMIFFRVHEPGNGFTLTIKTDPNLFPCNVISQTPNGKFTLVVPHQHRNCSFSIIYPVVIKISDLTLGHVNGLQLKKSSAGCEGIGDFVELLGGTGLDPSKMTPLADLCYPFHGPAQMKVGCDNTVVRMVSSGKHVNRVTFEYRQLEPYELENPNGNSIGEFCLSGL

[9] = target: T6, Corticotropin-releasing factor receptor 2/Corticotropin-releasing factor-binding protein; assay: activators of CRF receptor 2 with binding protein – uHTS hits, confirmation (AID 602473); type: functional; conditions: read-out: EC50_Mean
[10] = test system: Streptococcus sp. 'group A'; assay: Streptococcus pyogenes SK(-)GAS viability under kanamycin – luminescence, BacTiterGlo, confirmation, counter-screen for streptokinase expression inhibitor project, dose response (AID 1900); type: functional, organism-based
[11] = Trypanosoma cruzi growth suppression in host cells – NIH3T3 host cells, beta-gal luminescence, confirmation (AID 2044); type: functional, cell-based;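 also: intracellular parasites grown in NIH/3T3 mouse fibroblasts as host cells; luminescent beta-galactosidase reporter signal from transgenic T. cruzi replicating inside host cells; inhibitors lower the luminescence signal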
[12] = microbe, parasite or virus in culture; type: functional; conditions: Mycobacterium tuberculosis
[13] = NIH3T3 cell viability loss – ATP luminescence, mouse fibroblasts, counter-screen, dose response (AID 2010); type: functional, cell-based;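 also: cells exposed to compound for about 90 hours before reading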
Streptococcus = assay: GAS UMAA2166 growth inhibition – luminescence, BacTiterGlo, counter-screen for streptokinase expression inhibitor project, dose response (AID 1915); type: functional, organism-based;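 also: potency for reduction of bacterial viability or growth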
INS1 = assay: INS-1E survival protection against cytokine death – cell-based, luminescence, retest, dose response (AID 449756); type: functional; conditions: Rattus norvegicus;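 also: cell death triggered by IL-1 beta plus TNF-alpha plus IFN-gamma mixture; protective hits raise ATP signal compared with cytokine alone wells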

Sequence of Nonstructural protein 1 (Q194T2 whole entry): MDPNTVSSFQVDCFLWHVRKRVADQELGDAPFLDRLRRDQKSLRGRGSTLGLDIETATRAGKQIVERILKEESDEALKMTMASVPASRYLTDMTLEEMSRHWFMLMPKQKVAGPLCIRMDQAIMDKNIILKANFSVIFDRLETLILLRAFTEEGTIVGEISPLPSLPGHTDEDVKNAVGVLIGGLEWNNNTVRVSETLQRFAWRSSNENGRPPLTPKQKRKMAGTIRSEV

## O=C(O)c1cc2c3ccccc3nc-2c[nH]1
Nonstructural protein 1
  IC50: 5.27 µM (active)

## COc1ccc(Nc2ccc(S(=O)(=O)N3CCCCC3)cc2[N+](=O)[O-])cc1OC
Nonstructural protein 1
  IC50: 28.8 µM (active)

## COc1ccc2nc(Nc3nc4cc5c(cc4s3)OCCO5)sc2c1
Caspase-3
  IC50: 37 µM (active)
[1]
  IC50: 5.81 µM (active)
[2]
  IC50: 66.6 µM (active)
[3]
  IC50: > 100 µM (inactive)

## COc1cccc(N=Nc2ccc3ccccc3c2O)c1
Nonstructural protein 1
  IC50: 5.22 µM (active)

## CN(C)c1ccc([C@@H]2[C@@H]([N+](=O)[O-])[C@H]3C=Cc4ccccc4N3[C@H]2C(=O)c2ccc(Cl)cc2)cc1
Nonstructural protein 1
  IC50: 26.5 µM (active)

## Cc1ccc(NC(=O)C2CCC(CNc3c(N4CCC(C)CC4)c(=O)c3=O)CC2)cc1F (stereo unspecified)
[4]
  EC50: 11.5 µM (active)
[5]
  EC50: > 120 µM (not active)
[6]
  EC50: > 120 µM (not active)
[7]
  IC50: > 80 µM (inactive)

## COC(=O)c1cc2c(-c3ccccc3)cc3ccccn3c-2c1C(=O)OC
Nonstructural protein 1
  IC50: 19.2 µM (active)
H9c2
  IC50: > 79 µM (inactive)

## Cc1ccc2oc(-c3ccco3)nc2c1
Caspase-3
  IC50: 6.87 µM (active)
[1]
  IC50: 5.87 µM (active)
[2]
  IC50: 21.3 µM (active)
[3]
  IC50: > 100 µM (inactive)

## Brc1ccc(-c2cnc(-c3cccs3)o2)cc1
Caspase-3
  IC50: 29.5 µM (active)
[1]
  IC50: 5.42 µM (active)
[2]
  IC50: 15 µM (active)
[3]
  IC50: 27.6 µM (active)
Protein skinhead-1
  IC50: 19.7 µM (active)

## O=C(c1cc2nc(-c3ccccc3)cc(-c3ccccc3)n2n1)N1CCN(C(=O)c2ccco2)CC1
[7]
  IC50: 72.3 µM (inactive)
H9c2
  IC50: > 79 µM (inactive)
[8]
  IC50: > 47.1 µM (inactive)
[9]
  EC50: > 53 µM (inactive)

## COc1ccccc1Nc1ncccc1[N+](=O)[O-]
Nonstructural protein 1
  IC50: 29.9 µM (active)

## Cc1c(NC(=O)/C=C/c2cn(-c3ccccc3)nc2-c2ccccc2)c(=O)n(-c2ccccc2)n1C
[7]
  IC50: > 80 µM (inactive)

## NC(=S)NN=Cc1nccc2ccccc12
Nonstructural protein 1
  IC50: 2.03 µM (active)

## CC1CCN(CCCNC(=O)COc2cc(=O)n(C)c3ccccc23)CC1
[7]
  IC50: > 80 µM (inactive)

## Cc1ccc(C2(c3ccc(C)cc3)CC2C(=O)Nc2ccc([N+](=O)[O-])cc2O)cc1 (stereo unspecified)
[4]
  EC50: 10.1 µM (active)
[10]
  EC50: 2.34 µM (active)
[5]
  EC50: 13.7 µM (active)
[6]
  EC50: 9.29 µM (active)
[11]
  EC50: 3.31 µM (active)
[12]
  CC50: 3.29 µM (active)
[13]
  EC50: > 60 µM (not active)
Streptococcus
  EC50: 4.17 µM (active)
[7]
  IC50: 33.8 µM (inactive)
INS1
  AC50: 3.61 µM (active)
